According to publication PMC8391922, “The Combined Effect of Branching and Elongation on the Bioactivity Profile of Phytocannabinoids. Part I: Thermo-TRPs” (Biomedicines, 2021):
Where two headings read alike, the source gives them in different places.

What was measured:
Assay type in all cases: cell-based
rat TRPV4 = target: T1, rat TRPV4 (Rattus norvegicus, UniProt Q9ERZ8); assay: TRPV4-mediated elevation of intracellular Ca2+ (Fluo-4) in transfected HEK-293 cells; settings: for TRPV4 Efficacy (% IM 4 μM): percentage of the response to ionomycin 4 μM
T1 construct: expressed in transfected cells; host or cells: HEK-293
T1 sequence (Q9ERZ8 whole entry): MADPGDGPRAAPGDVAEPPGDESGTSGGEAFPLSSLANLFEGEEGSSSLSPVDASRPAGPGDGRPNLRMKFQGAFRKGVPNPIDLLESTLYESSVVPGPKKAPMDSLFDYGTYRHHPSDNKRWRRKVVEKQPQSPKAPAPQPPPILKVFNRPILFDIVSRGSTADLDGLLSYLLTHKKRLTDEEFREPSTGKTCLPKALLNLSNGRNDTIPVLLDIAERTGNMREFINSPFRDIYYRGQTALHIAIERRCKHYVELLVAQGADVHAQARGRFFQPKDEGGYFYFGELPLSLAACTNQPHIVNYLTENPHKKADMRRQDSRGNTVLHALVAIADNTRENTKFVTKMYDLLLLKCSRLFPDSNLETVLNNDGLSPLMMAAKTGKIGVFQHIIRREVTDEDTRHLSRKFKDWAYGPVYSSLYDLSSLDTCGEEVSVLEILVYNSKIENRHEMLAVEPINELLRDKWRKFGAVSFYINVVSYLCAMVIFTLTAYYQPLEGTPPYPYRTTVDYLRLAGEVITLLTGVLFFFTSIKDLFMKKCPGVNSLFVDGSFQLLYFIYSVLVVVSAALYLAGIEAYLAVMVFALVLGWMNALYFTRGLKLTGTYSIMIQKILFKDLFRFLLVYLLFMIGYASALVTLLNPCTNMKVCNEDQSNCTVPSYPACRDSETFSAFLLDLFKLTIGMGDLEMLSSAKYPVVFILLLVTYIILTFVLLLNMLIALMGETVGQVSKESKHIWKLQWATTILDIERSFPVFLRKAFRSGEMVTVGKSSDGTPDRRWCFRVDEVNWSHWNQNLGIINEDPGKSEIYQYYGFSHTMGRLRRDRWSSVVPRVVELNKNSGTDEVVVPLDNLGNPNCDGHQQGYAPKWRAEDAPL
Protocol: (§1) Assays of rat TRPA1, TRPV2, TRPV3, TRPV4, and TRPM8 or human TRPV1 mediated elevation of intracellular Ca ^2+ in transfected HEK-293 cells were performed with a continuous monitoring of [Ca ^2+]i during the experiments. […] Cell fluorescence before and after the addition of various concentrations of test compounds was measured, normalizing the effects against the response to ionomycin (IM, 4 μM). The values of the effect on [Ca^2+]i in HEK-293 cells not transfected were used as baseline and subtracted from the values obtained from transfected cells. For TRPA1, agonist efficacy was expressed as a percentage of the effect on [Ca ^2+]i observed with 100 μM allylisothiocyanate. […] In the TRPV3 assay, TRPV3-expressing HEK293 cells were first sensitized with the structurally unrelated agonist 2-aminoethoxydiphenyl borate (100 μM). Antagonist/desensitizing behavior is evaluated against the agonist of the TRP analyzed by adding the compounds directly in the quartz cuvette 5 min before stimulation of cells with the agonist. […] Dose-response curve fitting (sigmoidal dose-response variable slope) and parameter estimation were performed with Graph-Pad Prism8 (GraphPad Software Inc., San Diego, CA, USA). All determinations were performed at least in triplicate.

rat TRPA1 = target: T2, rat TRPA1 (Rattus norvegicus, UniProt Q6RI86); assay: TRPA1-mediated elevation of intracellular Ca2+ (Fluo-4) in transfected HEK-293 cells; settings: for TRPA1 Efficacy (%ITC 100 μM): percentage of the effect of 100 μM allylisothiocyanate on [Ca2+]i
T2 construct: expressed in transfected cells; host or cells: HEK-293
T2 sequence (Q6RI86 whole entry): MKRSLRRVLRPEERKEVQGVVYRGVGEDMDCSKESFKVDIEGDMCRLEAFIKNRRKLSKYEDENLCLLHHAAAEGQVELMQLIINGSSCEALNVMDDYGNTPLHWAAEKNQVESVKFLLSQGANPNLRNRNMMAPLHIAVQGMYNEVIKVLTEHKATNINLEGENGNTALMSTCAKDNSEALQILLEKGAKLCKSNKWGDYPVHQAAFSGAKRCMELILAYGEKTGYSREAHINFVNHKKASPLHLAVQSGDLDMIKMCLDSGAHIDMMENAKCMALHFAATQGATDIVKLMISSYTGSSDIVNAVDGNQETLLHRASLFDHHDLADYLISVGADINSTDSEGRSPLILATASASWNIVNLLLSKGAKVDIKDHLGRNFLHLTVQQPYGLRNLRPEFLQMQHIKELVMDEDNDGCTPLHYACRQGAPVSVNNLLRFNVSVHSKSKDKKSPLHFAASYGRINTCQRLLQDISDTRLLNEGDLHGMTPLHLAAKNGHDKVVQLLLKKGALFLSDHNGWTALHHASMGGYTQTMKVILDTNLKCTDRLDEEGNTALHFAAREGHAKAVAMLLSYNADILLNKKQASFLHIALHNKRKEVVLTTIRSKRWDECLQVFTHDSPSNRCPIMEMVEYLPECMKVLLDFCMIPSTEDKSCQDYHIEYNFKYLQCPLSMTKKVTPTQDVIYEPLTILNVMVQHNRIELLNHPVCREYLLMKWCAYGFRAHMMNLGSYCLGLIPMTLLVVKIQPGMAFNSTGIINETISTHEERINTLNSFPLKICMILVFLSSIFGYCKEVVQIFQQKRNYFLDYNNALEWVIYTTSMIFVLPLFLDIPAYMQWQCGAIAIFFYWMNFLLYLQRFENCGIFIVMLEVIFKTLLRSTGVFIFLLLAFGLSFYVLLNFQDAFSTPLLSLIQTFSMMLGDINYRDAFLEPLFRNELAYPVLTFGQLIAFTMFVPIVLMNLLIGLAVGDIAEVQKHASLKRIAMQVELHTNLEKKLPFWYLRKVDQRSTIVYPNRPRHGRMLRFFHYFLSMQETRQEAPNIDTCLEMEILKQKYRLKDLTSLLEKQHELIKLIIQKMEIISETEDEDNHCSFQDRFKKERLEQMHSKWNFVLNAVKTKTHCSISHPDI
Protocol: as §1

rat TRPV2 = target: T3, rat TRPV2 (Rattus norvegicus, UniProt Q9WUD2); assay: TRPV2-mediated elevation of intracellular Ca2+ (Fluo-4) in transfected HEK-293 cells; settings: for IC50: compound added 5 min before agonist CBD 2 μM; for TRPV2 Efficacy (% IM 4 μM): percentage of the response to ionomycin 4 μM, HEK-293
T3 construct: expressed in transfected cells; host or cells: HEK-293
T3 sequence (Q9WUD2 1-761): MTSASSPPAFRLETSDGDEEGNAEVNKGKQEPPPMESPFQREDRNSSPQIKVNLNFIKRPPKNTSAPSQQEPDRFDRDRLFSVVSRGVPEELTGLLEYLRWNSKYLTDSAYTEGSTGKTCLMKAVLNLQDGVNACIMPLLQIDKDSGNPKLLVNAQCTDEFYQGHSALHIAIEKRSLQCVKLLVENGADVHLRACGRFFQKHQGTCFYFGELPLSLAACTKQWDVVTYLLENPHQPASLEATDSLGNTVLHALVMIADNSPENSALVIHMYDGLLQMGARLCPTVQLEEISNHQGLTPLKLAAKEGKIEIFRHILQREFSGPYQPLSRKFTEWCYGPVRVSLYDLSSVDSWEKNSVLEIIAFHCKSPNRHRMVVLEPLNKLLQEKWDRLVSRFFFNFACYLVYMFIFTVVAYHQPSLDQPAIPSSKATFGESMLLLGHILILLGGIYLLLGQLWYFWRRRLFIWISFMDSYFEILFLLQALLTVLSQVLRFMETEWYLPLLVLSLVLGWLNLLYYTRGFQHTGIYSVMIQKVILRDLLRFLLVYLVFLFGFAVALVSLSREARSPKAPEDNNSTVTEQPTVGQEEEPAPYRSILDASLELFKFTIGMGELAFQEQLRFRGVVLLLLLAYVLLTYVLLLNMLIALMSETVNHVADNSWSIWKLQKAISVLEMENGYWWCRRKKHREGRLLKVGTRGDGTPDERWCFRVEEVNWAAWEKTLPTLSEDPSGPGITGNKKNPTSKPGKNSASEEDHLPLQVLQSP
Protocol: as §1

[1] = antagonist/desensitizing, compound added 5 min before agonist GSK1016790A 10 nM, read-out: IC50 TRPV4
[2] = antagonist/desensitizing, compound added 5 min before agonist AITC 100 μM, read-out: IC50 TRPA1
[3] = half-maximal increase in [Ca2+]i, HEK-293, read-out: TRPA1 Potency EC50
[4] = antagonist/desensitizing, read-out: IC50 TRPV2
[5] = IC50 TRPV2, antagonist/desensitizing

C=C(C)[C@@H]1CCC(C)=C[C@H]1c1c(O)cc(C(C)(C)CCCCCC)cc1O [1b, Depentyl-α,α-dimethylheptyl-cannabidiol]
IC50 (rat TRPV4; [1]): > 100 µM
TRPV4 Efficacy (% IM 4 μM) (rat TRPV4; HEK-293): 34.0 ± 1.3%
IC50 (rat TRPA1; [2]): 0.51 ± 0.03 µM
EC50 (rat TRPA1; [3]): 0.4 ± 0.15 µM
TRPA1 Efficacy (%ITC 100 μM) (rat TRPA1; HEK-293): 133.4 ± 5.3%
IC50 (rat TRPV2; [4]): 16.8 ± 0.2 µM
TRPV2 Efficacy (% IM 4 μM) (rat TRPV2): < 10%

CCCCCCC(C)(C)c1cc(O)c(C/C=C(\C)CCC=C(C)C)c(O)c1 [7b, Depentyl-α,α-dimethylheptyl-cannabigerol]
IC50 (rat TRPV4; [1]): 35.4 ± 3.2 µM
EC50 (rat TRPV4; half-maximal increase in [Ca2+]i, HEK-293, read-out: TRPV4 Potency EC50): 39 ± 21.6 µM
TRPV4 Efficacy (% IM 4 μM) (rat TRPV4; HEK-293): 34.4 ± 5.2%
IC50 (rat TRPA1; [2]): 1.7 ± 0.15 µM
EC50 (rat TRPA1; [3]): 9.1 ± 2 µM
TRPA1 Efficacy (%ITC 100 μM) (rat TRPA1; HEK-293): 99.2 ± 4.5%
EC50 (rat TRPV2): 9.8 ± 0.6 µM
IC50 (rat TRPV2; [5]): 39.4 ± 4.5 µM
TRPV2 Efficacy (% IM 4 μM) (rat TRPV2): 65.3 ± 0.7%

CCCCCCC(C)(C)c1cc(O)c2c(c1)OC(C)(CCC=C(C)C)C=C2 (stereo not drawn) [8b, Depentyl-α,α-dimethylheptyl-cannabichromene]
IC50 (rat TRPV4): > 100 µM
TRPV4 Efficacy (% IM 4 μM) (rat TRPV4; HEK-293): < 10%
EC50 (rat TRPA1): 0.76 ± 0.12 µM
IC50 (rat TRPA1): 0.32 ± 0.01 µM
TRPA1 Efficacy (%ITC 100 μM) (rat TRPA1; HEK-293): 120.4 ± 2.8%
EC50 (rat TRPV2): > 50 µM
IC50 (rat TRPV2; [5]): 22.6 ± 0.2 µM
TRPV2 Efficacy (% IM 4 μM) (rat TRPV2): 76.1 ± 0.6%

CCCCCCCc1cc(O)c2c(c1)OC(C)(CCC=C(C)C)C=C2 (centres unmarked) [8c, Depentyl-5-n-heptylcannabichromene]
IC50 (rat TRPV4; [1]): > 100 µM
TRPV4 Efficacy (% IM 4 μM) (rat TRPV4; HEK-293): <10%
IC50 (rat TRPA1; [2]): 3.8 ± 0.35 µM
EC50 (rat TRPA1; [3]): 1.2 ± 0.2 µM
TRPA1 Efficacy (%ITC 100 μM) (rat TRPA1; HEK-293): 97.8 ± 3.3%
IC50 (rat TRPV2; [4]): 9 ± 0.8 µM
TRPV2 Efficacy (% IM 4 μM) (rat TRPV2): <10%

CCCCC(C)(C)c1cc(O)c2c(c1)OC(C)(CCC=C(C)C)C=C2 (stereo not drawn) [8d, Depentyl-5-α,α-dimethylpentylcannabichromene]
IC50 (rat TRPV4; [1]): > 100 µM
TRPV4 Efficacy (% IM 4 μM) (rat TRPV4; HEK-293): <10%
IC50 (rat TRPA1; [2]): 0.4 ± 0.01 µM
EC50 (rat TRPA1; [3]): 0.15 ± 0.03 µM
TRPA1 Efficacy (%ITC 100 μM) (rat TRPA1; HEK-293): 98.7 ± 1.9%
IC50 (rat TRPV2; [4]): 13.3 ± 1.1 µM
TRPV2 Efficacy (% IM 4 μM) (rat TRPV2): <10%
